One data set concerns the target T1, Liver carboxylesterase 1 (Homo sapiens, UniProt P23141).
T1 sequence (P23141 whole entry): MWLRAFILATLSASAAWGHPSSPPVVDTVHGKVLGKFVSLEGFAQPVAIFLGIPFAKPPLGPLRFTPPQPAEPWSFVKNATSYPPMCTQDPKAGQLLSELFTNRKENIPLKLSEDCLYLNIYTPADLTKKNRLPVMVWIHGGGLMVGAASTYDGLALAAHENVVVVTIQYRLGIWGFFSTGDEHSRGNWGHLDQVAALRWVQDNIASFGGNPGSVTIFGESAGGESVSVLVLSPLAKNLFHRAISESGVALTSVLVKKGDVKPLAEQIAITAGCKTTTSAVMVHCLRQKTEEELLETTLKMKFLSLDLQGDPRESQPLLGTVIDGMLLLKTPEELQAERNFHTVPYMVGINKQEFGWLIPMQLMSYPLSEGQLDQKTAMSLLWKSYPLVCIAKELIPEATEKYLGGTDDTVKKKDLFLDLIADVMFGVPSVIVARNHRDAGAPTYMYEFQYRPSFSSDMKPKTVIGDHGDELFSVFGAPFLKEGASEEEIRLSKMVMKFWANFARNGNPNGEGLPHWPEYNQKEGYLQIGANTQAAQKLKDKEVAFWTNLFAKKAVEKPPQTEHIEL
As to the kind of experiment: Inhibition of human carboxylesterase 1 using 2-(2'-benzoyl-3'-methoxylphenyl)-benzothiazole as substrate at 0.1 to 200 uM by fluorescence assay.

In data set [1] the target is T2, Cocaine esterase (Homo sapiens, UniProt O00748).
T2 sequence (O00748 whole entry): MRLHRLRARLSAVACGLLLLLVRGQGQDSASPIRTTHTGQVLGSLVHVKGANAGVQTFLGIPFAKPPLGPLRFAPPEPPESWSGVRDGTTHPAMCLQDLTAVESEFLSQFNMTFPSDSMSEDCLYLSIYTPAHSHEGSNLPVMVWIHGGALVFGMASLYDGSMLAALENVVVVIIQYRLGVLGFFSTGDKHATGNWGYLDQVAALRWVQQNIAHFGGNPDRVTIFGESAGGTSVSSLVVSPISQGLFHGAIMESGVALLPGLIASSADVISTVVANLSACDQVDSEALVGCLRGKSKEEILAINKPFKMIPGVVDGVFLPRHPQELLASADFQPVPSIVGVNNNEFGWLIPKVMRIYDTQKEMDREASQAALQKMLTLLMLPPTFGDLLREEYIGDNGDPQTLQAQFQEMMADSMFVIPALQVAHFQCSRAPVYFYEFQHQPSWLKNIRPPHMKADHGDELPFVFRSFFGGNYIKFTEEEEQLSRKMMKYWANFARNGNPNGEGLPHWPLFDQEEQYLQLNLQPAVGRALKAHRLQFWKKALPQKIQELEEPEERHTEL
As to the kind of experiment: […] inhibition of human carboxylesterase 2 using 4-benzoyl-N-butyl-1,8-naphthalimide as substrate by Dixon and Lineweaver-Burk plot analysis.

In data set [2] the target is T2, Cocaine esterase. Description: Inhibition of human carboxylesterase 2 using 4-benzoyl-N-butyl-1,8-naphthalimide as substrate by fluorescence assay.

pIC50, pKi: −log10 of the molar value.

Turning to `CC1=CC(=O)C[C@@]2(C)[C@H]1CC[C@@]1(C)[C@H]2[C@@H](O)CC2=C([C@H](C)C[C@H](O)[C@@H](O)C(C)(C)O)CC[C@@]21C`, on Liver carboxylesterase 1, the “inhibition (INH)” value is listed as “Not Active”. This compound gave a pKi on Cocaine esterase [1] of 5.75. The same compound showed a pIC50 at Cocaine esterase [2] of 5.69.
In the case of `C[C@H](C[C@H](O)[C@@H](O)C(C)(C)O)C1=C2C[C@H](O)[C@H]3[C@@]4(C)CCC(=O)C(C)(C)[C@@H]4CC[C@]3(C)[C@@]2(C)CC1` [ALISOL A], the “inhibition (INH)” value at Liver carboxylesterase 1 is on record as “Not Active”.
In the case of `C[C@H](C[C@H](O)[C@H](O)C(C)(C)O)C1=C2C=C[C@H]3[C@@]4(C)CCC(=O)C(C)(C)[C@@H]4CC(=O)[C@]3(C)[C@@]2(C)CC1=O`, the “inhibition (INH)” value on Liver carboxylesterase 1 is reported as “Not Active”.
Regarding `C[C@H](CC[C@H](O)C(C)(C)O)[C@H]1CC[C@@]2(C)C1=CC=C1[C@]2(C)CC[C@H]2C(C)(C)C(=O)CC[C@]12C`, the “inhibition (INH)” value on Liver carboxylesterase 1 was “Not Active”. This compound gave a negative-log IC50 (pIC50) on Cocaine esterase [2] of 5.34.
Consider `C[C@H](C[C@H](O)[C@@H](O)C(C)(C)O)C1=C2C[C@H](O)[C@H]3[C@@]4(C)CCC(=O)C(C)(C)[C@@H]4CC[C@]3(C)[C@@]2(C)C=C1`, for which, on Liver carboxylesterase 1, the “inhibition (INH)” value is “Not Active”.
The same measure, in the same setting: for `CC(=O)C1=C2C=C[C@H]3[C@@]4(C)CCC(=O)C(C)(C)[C@@H]4CC[C@]3(C)[C@@]2(C)CC1=O` the value was “Not Active”.
As to `CC(=O)O[C@@H](C[C@@H](C)C1=C2C=C[C@H]3[C@@]4(C)CCC(=O)C(C)(C)[C@@H]4CC[C@]3(C)[C@@]2(C)CC1=O)[C@H](O)C(C)(C)O`, at Liver carboxylesterase 1, the “inhibition (INH)” value was “Not Active”.
As to `CC(=O)O[C@H]([C@@H]1C[C@@H](C)C2=C3C=C[C@H]4[C@@]5(C)CCC(=O)C(C)(C)[C@@H]5CC[C@]4(C)[C@@]3(C)C[C@@H]2O1)C(C)(C)O`, at Liver carboxylesterase 1, the “inhibition (INH)” value was “Not Active”. This compound also showed a pIC50 against Cocaine esterase [2] of 4.61.
Consider `CC(=O)O[C@H]1C[C@@H](C)C2=C3C[C@H](O)[C@H]4[C@@]5(C)CCC(=O)C(C)(C)[C@@H]5CC[C@]4(C)[C@@]3(C)C[C@@H]2O[C@@H]1C(C)(C)O`, for which the “inhibition (INH)” value at Liver carboxylesterase 1 is listed as “Not Active”.
The same measure, in the same setting: for `C[C@@H]1CC(=O)[C@@H](C(C)(C)O)O[C@H]2C[C@@]3(C)C(=C12)C=C[C@H]1[C@@]2(C)CCC(=O)C(C)(C)[C@@H]2CC[C@@]13C` the value was “Not Active”; for `CC(=O)O[C@@H]([C@@H](O)C[C@@H](C)C1=C2C[C@H](O)[C@H]3[C@@]4(C)CCC(=O)C(C)(C)[C@@H]4CC[C@]3(C)[C@@]2(C)CC1)C(C)(C)O`, “Not Active”.
Same read-out and setting: the entry for `C[C@@H]1C[C@@H]([C@@H](O)C(C)(C)O)O[C@H]2C[C@@]3(C)C(=C12)C=C[C@H]1[C@@]2(C)CCC(=O)C(C)(C)[C@@H]2CC[C@@]13C` is “Not Active”.
On to `C[C@H](C[C@H](O)[C@@H](O)C(C)(C)O)C1=C2C[C@@H]3OC(=O)C[C@@]4(C)[C@H](C(C)(C)C(=O)O)CC[C@@](C)([C@@H]34)[C@@]2(C)CC1`, for which, on Liver carboxylesterase 1, the “inhibition (INH)” value is listed as “Not Active”. In addition, at Cocaine esterase [2], the pIC50 is 4.68.
As to `C[C@H](C[C@H](O)[C@@H](O)C(C)(C)O)C1=C2CC[C@H]3[C@@]4(C)CCC(=O)C(C)(C)[C@@H]4CC[C@]3(C)[C@@]2(C)CC1`, the “inhibition (INH)” value against Liver carboxylesterase 1 was “Not Active”. This compound showed a pIC50 against Cocaine esterase [2] of 5.33.
The like results for `C=C(C)[C@@H](O)[C@@H](O)C[C@@H](C)C1=C2C=C[C@H]3[C@@]4(C)CCC(=O)C(C)(C)[C@@H]4CC[C@]3(C)[C@@]2(C)CC1=O` were, in that order, “Not Active” and 5.06.
As for `C=C(C)[C@@H](O)[C@@H](O)C[C@@H](C)C1=C2CC[C@H]3[C@@]4(C)CCC(=O)C(C)(C)[C@@H]4CC[C@]3(C)[C@@]2(C)CC1`, the “inhibition (INH)” value at Liver carboxylesterase 1 is reported as “Not Active”.
As for `CCOC(C)(C)[C@H](O)[C@@H](O)C[C@@H](C)C1=C2C[C@H](O)[C@H]3[C@@]4(C)CCC(=O)C(C)(C)[C@@H]4CC[C@]3(C)[C@@]2(C)CC1`, the “inhibition (INH)” value against Liver carboxylesterase 1 is “Not Active”. Further, the pIC50 on Cocaine esterase [2] is 5.33.
Take `C[C@H](CC(=O)[C@H](O)C(C)(C)O)C1=C2C=C[C@H]3[C@@]4(C)CCC(=O)C(C)(C)[C@@H]4CC[C@]3(C)[C@@]2(C)CC1=O`: the “inhibition (INH)” value on Liver carboxylesterase 1 is “Not Active”.
Still for that read-out and setting: for `C[C@H](C[C@H](O)[C@H](O)C(C)(C)O)C1=C2C=C[C@H]3[C@@]4(C)CCC(=O)C(C)(C)[C@@H]4CC[C@]3(C)[C@@]2(C)CC1=O` the value was “Not Active”; for `C=C(C)[C@H](O)[C@@H]1C[C@@H](C)C2=C3C[C@H](O)[C@H]4[C@@]5(C)CCC(=O)C(C)(C)[C@@H]5CC[C@]4(C)[C@@]3(C)C[C@@H]2O1`, “Not Active”.
Same read-out and setting: the entry for `CC1(C)O[C@@H]1[C@@H](O)C[C@](C)(O)C1=C2C[C@H](O)[C@H]3[C@@]4(C)CCC(=O)C(C)(C)[C@@H]4CC[C@]3(C)[C@@]2(C)CC1=O` is “Not Active”.

The values above are taken from ChEMBL document CHEMBL3632528 (J Nat Prod, 2015).
